In patent US9993488B2, “Dry powder formulations for inhalation” (OtiTopic Inc., priority 2014, dated 2018):
≈ marks a conversion by molar mass, not a printed value. Like-named read-outs stand apart in the source and are kept apart here. Values belong to the molecule of their own block, whether it stands above or below them.

Legend:
[1] = Solubility of aspirin in solvents; type: physicochemical; conditions: organic solvent or mixture
Description: The solubility of aspirin in a number of solvents was first evaluated prior to initiating controlled crystallization by addition of a suitable anti-solvent.

[2] = Solubility of aspirin in anti-solvents / dispersion media; type: physicochemical
Protocol: After considering a number of factors in the end it was determined that only n-heptane and toluene fulfilled all the requirements, and therefore these were selected for further evaluation. Suspensions of aspirin at 5% w/w were prepared with the various anti-solvents, by charging the required amount of anti-solvent, charging the required amount of aspirin, and then stirring until a homogeneous suspension was obtained. The suspensions were qualitatively evaluated at room temperature and then filtered using a 0.45 μm membrane, which was then placed in an oven and dried at 60° C. until the solvent had completely evaporated. A quantitative analysis was performed on the residue that remained in the membrane by weighing the membrane before and after the test.
5% w/w DSPC was used as it was found from previous work to mitigate irritation when inhaled. Additionally, soy lecithin was also used in the concentration of 0.1% w/w. As aspirin is insoluble in n-hexane, it was selected as a dispersion media for the micronized particles. Also, it has boiling point of 70° C. which is much below the melting point of aspirin (˜135° C.) and therefore, an inlet temperature of 85° C. should remove solvent without affecting the aspirin particles.

respiratory system = experiment: Irritation / tolerability on inhalation; type: in vivo
Description: In addition, particles described herein can be mixed and/or coated with various pharmaceutically acceptable excipients. Excipients can be included in order to improve aerodynamic performance of the active drug, to improve bioavailability, increase stability, to modulate pH, to provide sustained release properties, to provide taste-masking of an irritating drug and/or to improve pharmacokinetic performance. In one embodiment, a dry powder comprises an amount of excipient effective to provide taste-masking of an irritating drug. In terms of suitable formulations for inhalation, not only is particle size important in order to reach a desired region of the respiratory system, but the formulation must be acceptable to patients. […] Consequently, it became necessary to find a suitable excipient in order to mask this property of aspirin.
Aspirin alone may be too irritating and evoke a choking response (e.g., coughing, bronchospasms) when inhaled. […] For example, symptoms of headache and nasal congestion may be alleviated within about 10 seconds, about 15 seconds, about 20 seconds, about 30 seconds, or within about 45 seconds.

[3] = cited from earlier work
[4] = system: major gastrointestinal and extracranial bleeds; conditions: oral aspirin; cited from earlier work
vascular events = conditions: cited from earlier work
[5] = system: platelet aggregation, platelet thromboxane production, urinary 2,3-dinor-TXB2 excretion; conditions: cited from earlier work
[6] = Gravimetric emitted dose through DPI devices (TwinCaps, RS01) with NGI; type: physicochemical; conditions: 40 L/min, fill weight 60.00 mg
Protocol: The aerodynamic particle size distributions (APSDs) of the ASA powders were determined by evaluating emitted doses gravimetrically through two DPI devices, the TwinCaps and the RS01, using a Next Generation Impactor (NGI). Flow rates of approximately 40 and 100 L/min provided the 4 kPa pressure drop across the TwinCaps and RS01 devices, respectively, as stipulated by USP <601>, Inhalation and Nasal Drug Products: Aerosol, Sprays, and Powders—Performance Quality Tests.
The TwinCaps DPI was tested (2 actuations) using various loaded doses. Testing was performed to determine the approximate emitted dose from the device based on weight. Each test was performed using a freshly prepared NGI.
The Plastiape RS01 monodose DPI inhaler was also tested using various loaded doses in Size 3 HPMC capsules to determine approximate emitted dose based on the weight.

[7] = Pharmacokinetics of orally administered aspirin (literature); conditions: extrapolated from linear pharmacokinetics over 30-400 mg
[8] = 5% w/w suspension, room temperature, 0.45 μm filtration
[9] = after oral administration of ASA
[10] = following administration of ASA

Compound: CC(=O)Oc1ccccc1C(=O)O [aspirin, acetylsalicylic acid]
solubility ([1]; DMF, 23 °C): 500 mg/mL (≈ 2780 mM)
solubility ([1]; PEG-200, 23 °C): 77 mg/mL (≈ 427 mM)
solubility ([1]; THF, 3 °C): 250 mg/mL (≈ 1390 mM)
solubility ([1]; THF, 23 °C): 500 mg/mL (≈ 2780 mM)
solubility ([1]; acetone, 3 °C): 143 mg/mL (≈ 794 mM)
solubility ([1]; acetone, 23 °C): 200 mg/mL (≈ 1110 mM)
solubility ([1]; ethanol, EtOH, 3 °C): 63 mg/mL (≈ 350 mM)
solubility ([1]; ethanol, EtOH, 23 °C): 125 mg/mL (≈ 694 mM)
solubility ([1]; methanol, MeOH, 3 °C): 133 mg/mL (≈ 738 mM)
solubility ([1]; methanol, MeOH, 23 °C): 167 mg/mL (≈ 927 mM)
Behavior towards n-heptane [2, 8]: phobic behavior
Solubility in toluene [2, 8]: partially soluble
Solubility in n-hexane ([2]; n-hexane): insoluble
irritation / tolerability when inhaled (respiratory system): quite irritating
elimination half-life [3, 9]: 0.25 to 0.333 h
time to peak plasma levels [3, 9]: about 20 minutes
fraction of oral dose bioavailable ([3]; oral, first pass effect): one to two-thirds
fraction of oral dosage lost or inactivated by first pass effect ([3]; oral, gut and liver): approximately ⅔
increase of major gastrointestinal and extracranial bleeds [4]: over 50%
vascular events prevented (vascular events; Dutch TIA Study, any dose above 30 mg daily): 13%
risk of stroke or death (vascular events; SALT, 75 mg/day, patients with cerebrovascular ischemic events): significantly reduces
inhibition of indices of platelet activation ([5]; 40 mg ASA versus 100 mg, healthy human subjects): significantly less effective
inhibition of platelet aggregation, thromboxane production, urinary 2,3-dinor-TXB2 excretion ([5]; plain versus enteric-coated 100 mg ASA): equally effective

% Emitted (based on fill weight) [6]: 94.5%
Total Emitted Dose [6]: 56.73 mg
Compound: OC[C@H]1O[C@@H](O[C@H]2[C@H](O)[C@@H](O)C(O)O[C@@H]2CO)[C@H](O)[C@@H](O)[C@H]1O (stereo partly shown) [Lactose, lactose]

expected peak circulating plasma level [7]: ~10 µg/mL
Compound: O=C(O)c1ccccc1O [salicylic acid]
elimination half-life [3, 10]: 2 to 3 h
period of increasing plasma levels [3, 10]: about 45 minutes
